Where two headings read alike, the source gives them in different places. Bounds are passed on as bounds.

From US8383609B2, “Phosphorus containing heterocyclic compounds, sugar analogues, and compositions having anti-cancer activity containing the same” (Centre National de la Recherche Scientifique, priority 2007, dated 2013) come the findings set out here.

Data set [1] deals with C6 Cells from glioblastomas of rats. In words: Cytotoxicity on the C6 cell line (quantitative neutral red assay).
Description: c) C6 Cells from glioblastomas of rats. […] These cells were cultured in MEM (Minimum Essential Medium), in the presence of 5% of foetal calf serum. Incubation was conducted at 37° C. in a 5% CO2 humidity atmosphere.
The cells were seeded in 96-well plates with 2000 cells per well in 200 μL of MEM/HANKS (70/30) in the presence of 5% of foetal calf serum. The compounds were added 24 hours after seeding. […] The concentration range used did vary from 50 μM to 24 nM by conducting ½ to ½ serial dilutions.
(§1) The activity evaluation of the test compounds was effected by measuring the cell viability in the culture wells, by means of a so called “neutral red assay” that did consist in contacting the cells with this dye, the accumulation of which in cell acidic compartments does express the health status of the latter. The neutral red test makes it thus possible to know the cytotoxic effect of a compound. The dye was used from a 0.33% stock solution in PBS. 20 μL of such solution were added to each culture well containing 300 μL of culture medium and the plates were incubated at 37° C. for three hours.
(§2) The supernatant of each well was then removed by succion. […] The wells were evacuated again, and the cells were lyzed, thus salting out the dye in the well, this procedure being effected with a solution made of ethanol, water and acetic acid (50/49/1). The colour intensity obtained directly indicated the cell viability. It was quantified by measuring the absorbance at 570 nm. This measure was effected on a 96-well plate reader, of BIO-RAD Microplate reader 550 type, providing an optical density value (OD) for each well of culture.
(§3) Thereafter IC50 values were therefore determined by establishing the OD well X/OD control ratio, thus directly providing the percentage of living cells in the medium.
The quantitative evaluation of the cytotoxicity of the compounds of the invention against modified cells that are said to be “cancerous” was conducted on the C6 cell line. Plates were seeded at a cell density of 2000 cells per well. This density enabled to obtain a 80% confluence after a 4 day-culture for non treated cells.
Data set [2] concerns astrocyte primary cultures from the cortex of a newborn rat. As to the kind of experiment: Cytotoxicity on the non modified astrocytes, so called healthy cells (quantitative assay). The note with it: second day after addition, 50 μM to 24 nM.
Description: (§4) b) Astrocyte primary cultures from the cortex of a newborn rat for testing the so called “healthy cells”. This primary culture was conducted based on the brain tissue removed from the cortex of a newborn rat. After homogeneization, trypsinization and centrifugation, cells were distributed in 24-well plates for about 3 weeks. Oligodendrocytes were then removed by stirring the culture plates for 30 minutes and by changing the supernatant with fresh medium.
as §1, §2, §3
(§5) Cytotoxicity evaluation assays against the so called “healthy cells” were conducted on astrocyte primary cultures collected from the cortex of newborn rats, mimetizing the physiology of a so called “healthy cell”, i.e. a non cancerous cell.
(§6) These cells being unmodified, their division time was very long (about 50 hours). It was thus necessary to choose a higher initial seeding concentration (5000 cells per well). The compounds (1) were introduced only after 96 hours so as to allow the cells to adhere to the well walls and to divide once or twice. The concentration range for the test compounds (1) varied from 50 μM to 24 nm as for the C6 cells. Controls were carried out the second day following the introduction of the compounds (1). Two plates were made available for each measurement.
Data set [3] deals with spontaneously converted astrocytes collected from the cortex of a newborn rat. As to the kind of experiment: Cytotoxicity on the spontaneously converted astrocytes (qualitative assay, microscopic observation). Format: cell-based. The conditions noted are these: microscopic observation each day for four days, 50 μM to 400 nM. The source says: a) Spontaneously converted astrocytes collected from the cortex of a newborn rat (see Bochelen D., Langley K., Adamczyk M., Kupfberg, Hor F., Vincendon G., Mersel M., J. Neurosci. Res., 2000, 62, 99-111), that is to say from normal glial cells maintained in culture and that became able to divide to infinity. These cells are not able to induce tumors after implantation in the rat but did avoid the cell cycle regulation. This cell line was maintained in culture in culture flasks in the presence of 5 mL of culture medium MH5 comprising 70% of MEM and 30% of a Hanks solution. This medium was supplemented with 5% of foetal calf serum. The culture medium was changed every three days. Cells were incubated at 37° C. in an air/CO2 atmosphere (95/5). For the experiments, a replanting was effected after removal of the culture medium, cells were treated for 4 to 5 minutes with trypsine (0.1%). The cell suspension was then placed in 5 mL of fresh medium, 50 μL of this solution were collected to perform the cell counting. […]
These assays conducted on compounds 3.28, 3.8, 3.5. […] The effect was evaluated by simple microscopic observation of the culture plates. […] The evaluated compounds did present an activity at a very low concentration. An activity could be observed after 72 h to 96 h (days 3 and 4) for the whole evaluated compounds.

Data set [4] has as its system astrocyte primary cultures from the cortex of a newborn rat.
Description: as §4, §1, §2, §3, §5, §6
[5] abbreviates: C6 cell line, high concentration.

“6-(1,2-dihydroxy-ethyl)-2,2-dimethyl-2-oxo-2-diethoxymethyl-tetrahydro-6λ*5*-[1,3]dioxolo[4,5-d][1,2]oxaphosphinan-3-tosyl [Compound 3.6]” showed a half-maximal inhibitory concentration (IC50) in data set [1] (C6 cell line, neutral red cell viability, measures conducted on day 2 or 3) of 1.5 µM.
In the case of `O=[N+]([O-])c1ccc([P@]2(=O)O[C@H](COCc3ccccc3)[C@@H](OCc3ccccc3)[C@H](OCc3ccccc3)C2O)cc1` (single isomer, unassigned) [Compound 3.52, 4,5-bis-benzyloxy-6-benzyloxymethyl-2-(p-nitro)phenyl-2-oxo-2λ^5-[1,2]oxaphosphinan-3-ol], the “cytotoxicity on healthy cells (cell viability)” value (“cytotoxicity on healthy cells” below) in data set [2] is reported as “absence of cytotoxicity”. The molecule also yielded an IC50 in data set [1] (Rattus norvegicus, C6, 48 h) of 0.1 to 5 µM.
For the molecule `CC1(C)O[C@H]2[C@@H]([C@H]3COC(C)(C)O3)O[P@@](=O)(c3ccccc3)[C@@H](Oc3ccc([N+](=O)[O-])cc3)[C@H]2O1` [Compound 3.9a, 4-(2,2-Dimethyl-[1,3]dioxolan-4-yl)-2,2-dimethyl-2-oxo-2-phenyl-tetrahydro-6λ*5*-[1,3]dioxolo[4,5-d][1,2]oxaphosphinan-3-oxy-p-nitrophenyl], the half-maximal inhibitory concentration (IC50) in data set [1] (Rattus norvegicus, C6, 48 h) was 0.4 to 1 µM.
Take `CCOC(OCC)P1(=O)O[C@H]([C@H]2COC(C)(C)O2)[C@@H]2OC(C)(C)O[C@@H]2C1O` (some centres unmarked) [Compound 3.19a, 4-(2,2-Dimethyl-[1,3]dioxolan-4-yl)-2,2-dimethyl-2-oxo-2-diethoxymethyl-tetrahydro-6λ*5*-[1,3]dioxolo[4,5-d][1,2]oxaphosphinan-3-ol]: in data set [3], the “cytotoxic activity on spontaneously converted astrocytes” value is listed as “cytotoxic activity”.
Regarding `CC1(C)O[C@H]2[C@@H]([C@H]3COC(C)(C)O3)O[P@@](=O)(c3ccccc3)[C@@H](NCc3ccccc3)[C@H]2O1` [Compound 3.28, 4-(2,2-Dimethyl-[1,3]dioxolan-4-yl)-2,2-dimethyl-2-oxo-2-phenyl-tetrahydro-6λ*5*-[1,3]dioxolo[4,5-d][1,2]oxaphosphinan-3-aminobenzyl], the “cytotoxicity on healthy cells” value in data set [2] was “absence of cytotoxicity”. Moreover, the “cytotoxic activity on spontaneously converted astrocytes” value in data set [3] is “cytotoxic activity”. In data set [1] (Rattus norvegicus, C6, 48 h), the IC50 was in the range of 0.8 to 5 µM.
As to `Cc1ccc(N[C@H]2[C@H]3OC(C)(C)O[C@H]3[C@@H]([C@H]3COC(C)(C)O3)O[P@@]2(=O)c2ccccc2)cc1` [Compound 3.30a, 4-(2,2-Dimethyl-[1,3]dioxolan-4-yl)-2,2-dimethyl-2-oxo-2-phenyl-tetrahydro-6λ*5*-[1,3]dioxolo[4,5-d][1,2]oxaphosphinan-3-aminotoluyl], in data set [2], the “cytotoxicity on healthy cells” value is given as “did not show any significative effect”. Further, in data set [1] (setting [5]), the “mortality of C6 cells when highly concentrated” value (“mortality of C6 cells” for short) is “total mortality”. This molecule also displayed an IC50 in data set [1] (Rattus norvegicus, C6, 48 h) of 0.5 to 5 µM.
Regarding `Cc1ccc(N[C@H]2[C@H]3OC(C)(C)O[C@H]3[C@@H]([C@H]3COC(C)(C)O3)O[P@@]2(=O)c2ccccc2)cc1` [Compound 3.30b, 4-(2,2-Dimethyl-[1,3]dioxolan-4-yl)-2,2-dimethyl-2-oxo-2-phenyl-tetrahydro-6λ*5*-[1,3]dioxolo[4,5-d][1,2]oxaphosphinan-3-aminotoluyl], the “cytotoxicity on healthy cells” value in data set [2] is “absence of cytotoxicity”.
The molecule `O=[P@@]1(c2ccccc2)O[C@H](COCc2ccccc2)[C@@H](OCc2ccccc2)[C@H](OCc2ccccc2)C1O` (some centres unmarked) [Compound 3.48a, 4,5-bis-benzyloxy-6-benzyloxymethyl-2-phenyl-2-oxo-2λ^5-[1,2]oxaphosphinan-3-ol] yielded an IC50 in data set [1] (Rattus norvegicus, C6, 48 h) of 1 to 2 µM.
Regarding `COc1ccc([P@]2(=O)O[C@H](COCc3ccccc3)[C@@H](OCc3ccccc3)[C@H](OCc3ccccc3)C2O)cc1` (some centres unmarked) [Compound 3.51a, 4,5-bis-benzyloxy-6-benzyloxymethyl-2-(p-methoxy)phenyl-2-oxo-2λ^5-[1,2]oxaphosphinan-3-ol], in data set [2], the “cytotoxicity on healthy cells” value was “did not show any significative effect”. Also, the “mortality of C6 cells” value in data set [1] (setting [5]) was “total mortality”. The same molecule came in with an IC50 in data set [1] (Rattus norvegicus, C6, 48 h) of 0.1 to 5 µM.
With `CC1(C)O[C@H]2[C@@H]([C@H]3COC(C)(C)O3)O[P@@](=O)(c3ccccc3)[C@@H](OC(=N)C(Cl)(Cl)Cl)[C@H]2O1` [Compound 3.57, 4-(2,2-Dimethyl-[1,3]dioxolan-4-yl)-2,2-dimethyl-2-oxo-2-phenyl-tetrahydro-6λ*5*-[1,3]dioxolo[4,5-d][1,2]oxaphosphinan-3-imidate], the “cytotoxicity on healthy cells” value in data set [4] was “did not show any significative effect”. In addition, the “cell death of healthy cells” value in data set [4] (rat) is reported as no more than 20%. The “mortality of C6 cells” value in data set [1] is reported as “total mortality”. In data set [1] (Rattus norvegicus, C6, 48 h), this molecule yielded an IC50 of 0.1 to 5 µM.
